Experiments:
Experiment in all cases: normalised viability (% of control), CellTiter-Blue; higher = more viable cells (about 100 = DMSO control)
Details in all cases: incubation time: 72 h
BT-474 = system: BT-474
Summary of the method: (§1)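 The reported quantity is normalised viability at a single listed concentration of the series. Compound in 5 µl medium was pre-dispensed into 384-well plates and 20 µl of breast cancer cell suspension was added for 72 h. A 2 h, 37 °C CellTiter-Blue step (2.5 µl) preceded fluorescence reading at 560/590 nm, and plates were normalised to vehicle (100) and a positive kill control (0).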

BT-549 = system: BT-549
Summary of the method: as §1

CAL-148 = system: CAL-148
Summary of the method: as §1

CAL-51 = system: CAL-51
Summary of the method: as §1

CAL-85-1 = system: CAL-85-1
Summary of the method: as §1

DU-4475 = system: DU-4475
Summary of the method: as §1

HCC1143 = system: HCC1143
Summary of the method: as §1

HCC1599 = system: HCC1599
Summary of the method: as §1

HCC1937 = system: HCC1937
Summary of the method: as §1

HDQ-P1 = system: HDQ-P1
Summary of the method: as §1

Hs578T = system: Hs578T
Summary of the method: as §1

MDA-MB-231 = system: MDA-MB-231
Summary of the method: as §1

MDA-MB-436 = system: MDA-MB-436
Summary of the method: as §1

MDA-MB-453 = system: MDA-MB-453
Summary of the method: as §1

MDA-MB-468 = system: MDA-MB-468
Summary of the method: as §1

MFM-223 = system: MFM-223
Summary of the method: as §1

SK-BR-3 = system: SK-BR-3
Summary of the method: as §1

Cn1cc(C2=C(c3cn(C4CCN(Cc5ccccn5)CC4)c4ccccc34)C(=O)NC2=O)c2ccccc21 [Enzastaurin]
normalised viability [%]
Details	3 nM	10 nM	30 nM	100 nM	1000 nM	10000 nM
BT-474	–	104	–	–	92.7	67
BT-549	–	92.4	–	–	68.9	48.1
CAL-51	117	–	111	107	–	–
CAL-85-1	85.1	–	93.4	85.4	–	–
CAL-148	78.6	–	80.2	78.5	–	–
DU-4475	91.1	–	103	94.2	–	–
HCC1143	–	76.8	–	–	64.8	61.5
HCC1599	–	101	–	–	93.2	82.4
HCC1937	–	91.1	–	–	75.6	48.9
HDQ-P1	113	–	107	89.3	–	–
Hs578T	–	91.2	–	–	68	32.6
MDA-MB-231	–	88.2	–	–	89.6	71.1
MDA-MB-436	–	127	–	–	56.1	57.8
MDA-MB-453	107	–	93.7	87.8	–	–
MDA-MB-468	–	103	–	–	107	62.8
MFM-223	–	90	–	–	65.1	55.9
SK-BR-3	–	99.8	–	–	63.4	37

CC(C)(C)NC(=O)[C@H]1CC[C@H]2[C@@H]3CC[C@H]4NC(=O)C=C[C@]4(C)[C@H]3CC[C@]12C [Finasteride]
normalised viability [%]
Details	3 nM	10 nM	30 nM	100 nM	1000 nM	10000 nM
BT-474	–	125	–	–	111	125
BT-549	–	89.8	–	–	99	98.5
CAL-51	112	–	108	103	–	–
CAL-85-1	100	–	91.7	100	–	–
CAL-148	95.1	–	96.8	102	–	–
DU-4475	97.7	–	106	103	–	–
HCC1143	–	102	–	–	96.8	106
HCC1599	–	97.1	–	–	114	83.4
HCC1937	–	107	–	–	94.7	106
HDQ-P1	121	–	116	130	–	–
Hs578T	–	64.2	–	–	108	117
MDA-MB-231	–	98.2	–	–	98.5	122
MDA-MB-436	–	91	–	–	97.8	96.3
MDA-MB-453	117	–	98.2	112	–	–
MDA-MB-468	–	106	–	–	99.2	121
MFM-223	–	106	–	–	97.7	41.8
SK-BR-3	–	110	–	–	107	102

Nc1ccn([C@@H]2O[C@H](CO)[C@@H](O)C2(F)F)c(=O)n1 [Gemcitabine]
normalised viability [%]
Details	0.3 nM	1 nM	3 nM	10 nM	100 nM	1000 nM
BT-474	–	119	–	–	103	101
BT-549	–	92.8	–	–	69.9	61
CAL-51	102	–	98	83.2	–	–
CAL-85-1	96.6	–	85.1	85.3	–	–
CAL-148	102	–	92.1	65.2	–	–
DU-4475	95.1	–	88.3	98.2	–	–
HCC1143	–	101	–	–	49.7	45.8
HCC1599	–	99.4	–	–	65.9	25.4
HCC1937	–	92.3	–	–	38.8	27.9
HDQ-P1	110	–	108	100	–	–
Hs578T	–	106	–	–	62.6	71.5
MDA-MB-231	–	97.9	–	–	72.1	72.2
MDA-MB-436	–	98.1	–	–	53.1	52.5
MDA-MB-453	114	–	91.7	97.9	–	–
MDA-MB-468	–	104	–	–	35.5	24.6
MFM-223	–	99.7	–	–	95.6	34.9
SK-BR-3	–	108	–	–	47	40.9

CC(C)C[C@H](NC(=O)[C@@H](COC(C)(C)C)NC(=O)[C@H](Cc1ccc(O)cc1)NC(=O)[C@H](CO)NC(=O)[C@H](Cc1c[nH]c2ccccc12)NC(=O)[C@H](Cc1cnc[nH]1)NC(=O)[C@@H]1CCC(=O)N1)C(=O)N[C@@H](CCCNC(=N)N)C(=O)N1CCC[C@H]1C(=O)NNC(N)=O [Goserelin]
normalised viability [%]
Details	3 nM	10 nM	30 nM	100 nM	1000 nM	10000 nM
BT-474	–	115	–	–	111	131
BT-549	–	85.9	–	–	88	103
CAL-51	107	–	104	105	–	–
CAL-85-1	102	–	93.9	102	–	–
CAL-148	92	–	97	98.9	–	–
DU-4475	91.4	–	84	111	–	–
HCC1143	–	82.8	–	–	95	89
HCC1599	–	107	–	–	83.8	90.2
HCC1937	–	104	–	–	85.1	97.4
HDQ-P1	104	–	109	103	–	–
Hs578T	–	105	–	–	98	104
MDA-MB-231	–	102	–	–	110	114
MDA-MB-436	–	95.6	–	–	97.3	94
MDA-MB-453	115	–	101	102	–	–
MDA-MB-468	–	96.5	–	–	94.5	108
MFM-223	–	92.1	–	–	87.8	100
SK-BR-3	–	98.8	–	–	106	94.7
